Experiment [1] has as its target T1, leukotriene B4 specific receptor on the membrane of human neutrophils (Homo sapiens, UniProt Q15722).
T1 construct: incubating neutrophils (1×10^7 cells) with 0.1-0.2 nM ^3 H-LTB4; endogenous in cells; host or cells: human peripheral blood neutrophils (buffy coats of two blood donors)
The experiment can be described thus: Inhibition of Binding of ^3 H-LTB4 to Peripheral Human Neutrophils. The conditions noted are these: 4° C., 10 minutes; for inhibition at 10 µM: drug concentration 10^-5 M, read-out: LTB4 Binding Inhibition; for inhibition at 1 µM: drug concentration 10^-6 M; for inhibition at 0.1 µM: drug concentration 10^-7 M. The gist of the method: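 Freshly isolated human donor neutrophils (1×10^7 cells) in HBSS/0.1% ovalbumin pH 7.3 were incubated with 0.1-0.2 nM ^3H-LTB4 and compound at 1×10^-5 or 1×10^-6 M for 10 min at 4 °C. Bound ligand was separated by centrifugation through phthalate oil and counted, then corrected for nonspecific binding and compared with compound-free control.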

Experiment [2] concerns shock after E. coli LPS and galactosamine (GALN) challenge. Kind of experiment: Mouse Endotoxin Shock Assay. It counts as in vivo, C57BL/6 male mice. Particulars: LPS/GALN s.c. challenge, results 48 hours after challenge, Reed Muench Method. As to the method: Compounds were given to 18-20 g C57BL/6 male mice using various regimens depending upon mode of administration. Control animals received corresponding vehicles only. The mice were then challenged with 0.2 ml of chromatographically purified 0111:B4 E. coli LPS and galactosamine hydrochloride (GALN) given subcutaneously (back of the neck). GALN was given at an approximate dose of 500 mg/kg whereas the LPS dose ranged between 0.3-1.2 μg/mouse (15-60 μg/k9). Control animals generally die of shock 7-15 hours after administration of LPS/GALN although a small number (0-5%) may die 24-48 hours after such administration. Calculation of the EDso for each compound was performed using the Reed Muench Method for results obtained 48 hours after challenge.

Experiment [3] has as its system Arachidonic Acid Induced Ear Edema. Kind of experiment: Arachidonic Acid-Induced Ear Edema Assay. The format is in vivo, Female BALB/C mice. Particulars: Mus musculus, 1 h, topical, one hour prior to arachidonic acid, read-out: Percent Inhibition of Ear Swelling; for inhibition in vivo at 1 %: 1% in ethanol gel; for inhibition in vivo at 0.05 %: 0.05% in ethanol gel. The procedure: Female BALB/C mice (Charles River; 18-20 rams) were divided into groups of five. Arachidonic acid was dissolved in ethanol at a concentration of 200 mg/ml. Each mouse received 2 mg/ear of arachidonic acid on the inner surface of the right ear. This dose of phlogistic was applied by an automatic pipette in 10 mcl volumes. The left ear (control) received ethanol. Drugs were applied topically in an ethanol-based gel to the entire outer surface of both ears one hour prior to arachidonic acid application. Edema was measured by the increase in ear weight. An hour after arachidonic acid solution or vehicle was applied, an ear sample of 7 mm in diameter was obtained from both ears. Ear edema was calculated by subtracting the […], dividing by the weight of the left/Control ear, and averaging the results for each group of mice according to compound and concentration.

Experiment [4] relates to inflammation created by injecting carrageenin into the hind paws of rats. The experiment can be described thus: Carrageenin Assay. The conditions noted are these: Rattus norvegicus, ip, 50 mg/kg i.p., prior to carrageenin injection, read-out: Percent Inhibition (Antiinflammatory Activity in the Carrageenin Assay). The format is in vivo. As to the method: The compounds were evaluated for antiinflammatory activity in the test method described by C. A. Winter, Proc. Soc. Exp. Biol. Med., 111, 544 (1962). In this test, inflammation is created by injecting carrageenin into the hind paws of rats. Test compounds are administered prior to injection to determine percent inhibition of the subsequent inflammation in comparison with control animals.

Experiment [5] has as its system IL-1 induced T-cell Proliferation. The experiment can be described thus: Anti IL-1 Activity (Thymocyte Assay): suppression of IL-1 induced T-cell proliferation. It counts as cell-based, C3H/HeJ male mice. The conditions noted are these: mouse thymocytes, 48 hours, read-out: Percent T-cell suppression; for inhibition at 1 µg/mL: 1 mcg/ml; for inhibition at 10 µg/mL: 10 mcg/ml. The procedure:
Thymus from 3-4 week old C3H/HeJ male mice and were passed through a #100 mesh screen to make a single cell suspension. The cells were suspended in RPMI-1640 supplemented with 2×10^-5 M 2-mercaptoethanol, 3% fetal calf serum, and 1% Penicillin/Streptomycin. The cell suspension was placed in a tissue culture flask and incubated at 37° C. in 5% carbon dioxide in air for 1-2 hours. The thymocytes were decanted, leaving adherent cells behind, and the liquid was centrifuged at 1400 rpm for 10 minutes. After decanting the supernatant, the cells were resuspended and counted with a hemocytometer. The density was adjusted to […]. Fifty μ1 of the suspension were added to each well of a 96-well microtiter plate, followed by the addition of 25 μl of PHA and 25 μl IL-1 (1:25 dilution of a 10 mcg/ml stock solution) per well.
Each compound to be tested was dissolved in 30% DMSO/70% PBS to make a stock solution of 1 mg/ml. Fifteen μl of each compound were added to 300 μl of media in the serial dilution plate. Twenty-five μl of each drug were added to the test plate in quadruplicate wells across the plate. The plate was incubated at 37° C. in 5% carbon dioxide in air for 48 hours. The wells were pulsed with tritiated thymidine (5 μCi.well) for 4 hours before harvesting on a Skatron cell harvester. The filter discs were placed in mini-vials, scintillation fluid (Tol-Pop) was added, and the vials counted. The percent of counts for each vial compared with control samples wherein no compound was added (vehicles only) was determined for each compound and are reported as Table III below as the percent T-ce1 suppression.

As a reminder, the ED50 is the dose that gives a 50% effect, or the effect in half of the subjects.

T1 sequence (Q15722 whole entry): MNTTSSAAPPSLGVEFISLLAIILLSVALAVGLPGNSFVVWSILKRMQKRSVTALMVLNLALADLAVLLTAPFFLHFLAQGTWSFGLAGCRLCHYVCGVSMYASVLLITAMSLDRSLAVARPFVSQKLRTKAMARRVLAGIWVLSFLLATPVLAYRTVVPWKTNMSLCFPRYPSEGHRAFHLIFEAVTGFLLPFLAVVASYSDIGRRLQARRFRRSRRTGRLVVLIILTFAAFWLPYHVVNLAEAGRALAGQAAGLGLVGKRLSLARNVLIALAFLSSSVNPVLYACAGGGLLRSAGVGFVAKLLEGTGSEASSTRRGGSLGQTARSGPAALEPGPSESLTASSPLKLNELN

With `CCc1cc(C(C)=O)c(O)cc1OCCCCc1nnnn1C` [Example 122, 2-Hydroxy-4-[4-(1-methyl-lH-tetrazol-5-yl)butoxy]-5-ethylacetophenone], in experiment [1], the inhibition at 10 µM was 66% and the inhibition at 1 µM was determined as 24%. The molecule further showed an ED50 in experiment [2] of 42 mg/kg. Besides, the inhibition in vivo at 1 % in experiment [3] was 10%. Moreover, the inhibition in vivo at 50 mg/kg in experiment [4] was 53%. In experiment [5], the inhibition at 1 µg/mL is 37% and the inhibition at 10 µg/mL is 87%.

With `CCc1cc(C(C)=O)c(O)cc1OCc1cccc(C#N)c1` [Example 55], in experiment [1], the inhibition at 10 µM came to 60%, the inhibition at 1 µM was found to be 71% and the inhibition at 0.1 µM turned out to be 25%. Further, it took a dose of 3.1 mg/kg to reach the 50% effect level in experiment [2] (ED50). For the same molecule, in experiment [3], the inhibition in vivo at 0.05 % is 43 to 59% and the inhibition in vivo at 1 % is 57%. In addition, in experiment [4], the inhibition in vivo at 50 mg/kg was 70%.

As to `C=CCc1cc(C(C)=O)c(O)cc1OCc1cccc(C#N)c1` [Example 50], in experiment [1], the inhibition at 10 µM worked out at 67%, the inhibition at 1 µM came out at 66% and the inhibition at 0.1 µM came to 25%. The molecule also returned a median effective dose (ED50) in experiment [2] of 9.5 mg/kg. The inhibition in vivo at 0.05 % in experiment [3] was in the range of 29 to 47%. The inhibition in vivo at 50 mg/kg in experiment [4] was 50 to 82%.

`CCc1cc(C(C)=O)c(O)cc1OCCCCCC(C)(C)c1nn[nH]n1` [Example 108, 5-Ethyl-2-hydroxy-4-[6-methyl-6-(1H-tetrazol5-yl)heptyloxy]acetophenone]: in experiment [1], the inhibition at 10 µM is 105%, the inhibition at 1 µM worked out at 96% and the inhibition at 0.1 µM stood at 60%. Besides, the ED50 in experiment [2] was greater than 50 mg/kg. In addition, the inhibition in vivo at 1 % in experiment [3] worked out at 60%. The inhibition in vivo at 50 mg/kg in experiment [4] was determined as 61%.

As to `CCc1cc(C(C)=O)c(O)cc1OCCCCCCS(C)(=O)=O` [Example 83, 2-Hydroxy-4-[6-(methylsulfonyl)hexyl-oxy]-5-ethylacetophenone], in experiment [1], the inhibition at 10 µM was 98% and the inhibition at 1 µM worked out at 61%. In addition, in experiment [2], the ED50 is greater than 50 mg/kg. For the same molecule, the inhibition in vivo at 0.028 % in experiment [3] (0.028% in ethanol gel) worked out at 59%. In experiment [4], the inhibition in vivo at 50 mg/kg is 26%. In experiment [5], the inhibition at 1 µg/mL was 29% and the inhibition at 10 µg/mL came out at 43%.

For the molecule `C=CCc1cc(C(C)=O)c(O)cc1OCc1ccc(C#N)cc1` [Example 48, 4[(4-Acetyl-5-hydroxy-2-allylphenoxy)-methyl]benzonitrile], in experiment [1], the inhibition at 10 µM worked out at 22% and the inhibition at 1 µM came out at 28%. The molecule also had an ED50 in experiment [2] of 18.6 mg/kg. Besides, the inhibition in vivo at 0.05 % in experiment [3] was found to be 13.6%. Besides, in experiment [4], the inhibition in vivo at 50 mg/kg was found to be 30%.

Turning to `CCc1cc(C(C)=O)c(O)cc1OCCCCCC[S+](C)[O-]` (stereo not shown) [Example 82, 2-Hydroxy-4-[6-(methylsulfinyl)hexyl-oxy]-5-ethylacetophenone], in experiment [1], the inhibition at 10 µM is 91% and the inhibition at 1 µM turned out to be 50%. The ED50 in experiment [2] was greater than 50 mg/kg. Besides, the inhibition in vivo at 1 % in experiment [3] is 9%. Also, in experiment [4], the inhibition in vivo at 50 mg/kg was 31%. Moreover, in experiment [5], the inhibition at 1 µg/mL was 21% and the inhibition at 10 µg/mL stood at 88%.

On to `CCc1cc(C(C)=O)c(O)cc1OCCCCCC(C)(C)C#N` [Example 68, 4-(6-Cyano-6-methylheptyloxy)-5-ethyl-2-hydroxyacetophenone], for which, in experiment [1], the inhibition at 10 µM amounted to 84% and the inhibition at 1 µM was determined as 53%. Besides, the ED50 in experiment [2] was greater than 50 mg/kg. The inhibition in vivo at 1 % in experiment [3] was 46%. Moreover, the inhibition in vivo at 50 mg/kg in experiment [4] turned out to be 33%. Further, in experiment [5], the inhibition at 1 µg/mL turned out to be 13% and the inhibition at 10 µg/mL came out at 99%.
